Results as given in article PMC4515084 (Chemmedchem, 2015).
Blank lines part the entries; values can stand above or below the compound they belong to.

Experiments:
human CYP 3A4 = human CYP 3A4 (Homo sapiens, UniProt P08684); assay: CYP inhibition assay, pooled human liver microsomes, midazolam substrate; format: in vitro ADME
human CYP 2C9 = human CYP 2C9 (Homo sapiens, UniProt P11712); assay: CYP inhibition assay, pooled human liver microsomes, diclofenac substrate; format: in vitro ADME
[1] = tested on: PPE-induced acute lung injury in mice; assay: PPE-induced acute lung injury; format: in vivo, mouse; settings: PPE noxa
[2] = tested on: HNE-induced acute lung injury in mice; assay: HNE-induced acute lung injury; format: in vivo, mouse; settings: administered 1 h prior to the HNE noxa
[3] = Pharmacokinetic studies in rats
[4] = target: porcine pancreatic elastase (PPE) (Sus scrofa, UniProt P00772); assay: Serine protease selectivity: PPE; format: biochemical; settings: listed as BAY 85-8501
Solubility = format: physicochemical

human CYP 2C9, sequence (P11712 whole entry): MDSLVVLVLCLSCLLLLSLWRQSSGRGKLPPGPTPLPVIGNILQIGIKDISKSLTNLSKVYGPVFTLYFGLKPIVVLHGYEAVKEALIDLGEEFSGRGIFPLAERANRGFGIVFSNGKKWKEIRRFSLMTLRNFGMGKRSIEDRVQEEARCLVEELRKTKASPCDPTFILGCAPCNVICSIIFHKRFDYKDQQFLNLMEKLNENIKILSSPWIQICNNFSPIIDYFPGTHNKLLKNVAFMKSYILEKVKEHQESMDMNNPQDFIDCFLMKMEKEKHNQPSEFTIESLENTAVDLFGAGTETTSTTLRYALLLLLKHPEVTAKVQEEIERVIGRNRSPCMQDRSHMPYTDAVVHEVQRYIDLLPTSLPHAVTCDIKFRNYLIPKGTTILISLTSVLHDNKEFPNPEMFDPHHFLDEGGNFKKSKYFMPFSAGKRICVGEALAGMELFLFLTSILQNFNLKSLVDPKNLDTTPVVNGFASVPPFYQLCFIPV
porcine pancreatic elastase (PPE), sequence (P00772 27-266): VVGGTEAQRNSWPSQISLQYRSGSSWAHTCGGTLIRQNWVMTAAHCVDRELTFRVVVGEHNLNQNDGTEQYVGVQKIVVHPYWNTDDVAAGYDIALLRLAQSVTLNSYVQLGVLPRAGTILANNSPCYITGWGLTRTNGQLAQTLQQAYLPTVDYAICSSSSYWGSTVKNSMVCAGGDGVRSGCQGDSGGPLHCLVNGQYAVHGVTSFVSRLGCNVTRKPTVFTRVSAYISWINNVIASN
human CYP 3A4, sequence (P08684 whole entry): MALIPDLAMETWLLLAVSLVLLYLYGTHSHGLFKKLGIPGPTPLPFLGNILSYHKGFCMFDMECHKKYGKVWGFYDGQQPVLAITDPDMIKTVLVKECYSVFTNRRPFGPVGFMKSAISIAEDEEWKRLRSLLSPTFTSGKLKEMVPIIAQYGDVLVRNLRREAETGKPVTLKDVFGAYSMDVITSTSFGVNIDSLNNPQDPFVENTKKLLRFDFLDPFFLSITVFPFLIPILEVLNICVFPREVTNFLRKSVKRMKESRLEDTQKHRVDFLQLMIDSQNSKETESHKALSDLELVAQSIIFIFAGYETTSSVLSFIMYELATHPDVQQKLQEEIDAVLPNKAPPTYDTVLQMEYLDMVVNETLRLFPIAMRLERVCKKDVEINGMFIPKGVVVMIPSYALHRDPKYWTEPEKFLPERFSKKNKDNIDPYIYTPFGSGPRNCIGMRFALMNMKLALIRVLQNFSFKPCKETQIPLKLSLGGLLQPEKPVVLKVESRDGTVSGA

SMILES: CC1=C(C#N)[C@@H](c2ccc(C#N)cc2)N(CC(N)=O)C(=O)N1c1cccc(C(F)(F)F)c1 [Compound 23]
- inhibition toward CYP 3A4 (human CYP 3A4; up to a concentration of 50 μM): no observable inhibition
- inhibition toward CYP 2C9 (human CYP 2C9; up to a concentration of 50 μM): no observable inhibition

SMILES: CC1=C(C#N)[C@@H](c2ccc(C#N)cc2S(C)(=O)=O)N(C)C(=O)N1c1cccc(C(F)(F)F)c1 [Compound 29, (4S)-4-[4-Cyano-2-(methylsulfonyl)phenyl]-3,6-dimethyl-2-oxo-1-[3-(trifluoromethyl)phenyl]-1,2,3,4-tetrahydropyrimidine-5-carbonitrile]
- primary lung injury [1]: could not prevent
- development of lung injury and subsequent inflammation [2]: completely prevented
- clearance ([3]; rat, in vivo, iv, 0.3 mg kg^−1): 8.33 mL/min/kg
- effect on PPE [4]: no inhibitory effect

SMILES: CC1=C(C#N)[C@@H](c2ccc(C#N)cc2S(C)(=N)=O)N(C)C(=O)N1c1cccc(C(F)(F)F)c1 (stereo partly shown) [Compound 30]
- IC50 (human CYP 3A4): > 50 µM
- solubility (Solubility): improved solubility
- IC50 (human CYP 2C9): > 50 µM

Continued, values first:

- clearance ([3]; rat, in vivo, iv, 0.3 mg kg^−1): 33.3 mL/min/kg
- clearance ([3]; rodents / rats): medium clearance
SMILES: CC(=O)C1=C(C)N(c2cccc(C(F)(F)F)c2)C(=O)N[C@@H]1c1ccc(C#N)nc1 [Compound 20]

- clearance ([3]; rat, in vivo, iv, 0.3 mg kg^−1): 35 mL/min/kg
- clearance ([3]; rodents / rats): medium clearance
SMILES: CC1=C(C(=O)OCCO)[C@@H](c2ccc(C#N)cc2)NC(=O)N1c1cccc(C(F)(F)F)c1 [Compound 17]
